What was measured:
[1] = system: pancreatic cancer cell lines; assay: Cell viability, second study of pancreatic cancer cell lines, 72 h; type: cell-based; details: treated 72 hours, range across cell lines (FIG. 2), read-out: cytotoxicity in terms of IC50 value
Method: (§1) Individual cell lines were treated with LP-184 for 72 hours and cell viability was assayed. IC50 values were generated from dose response curves plotted in GraphPad Prism.

[2] = system: Capan-1 cell line derived xenograft tumors; assay: Capan-1 cell line derived xenograft tumors in SCID mice; type: in vivo; details: 3 mg/kg intraperitoneal, thrice weekly for 3 weeks; end of study period, 60 days
Method: All animal studies were carried out in compliance with National Institutes of Health Guidelines for animals. The doses were selected to be tolerated in xenografts. Capan-1 cell line derived xenograft tumors were implanted in SCID mice and treated either with (a) vehicle control of 95% saline/5% ethanol (N=3) or (b) 3 mg/kg LP-184 (N=5) administered by intraperitoneal injection over thrice weekly doses for 3 weeks. In other words, one group was treated with LP-184 and the other group was treated with the vehicle control.

[3] = system: pancreatic cancer cell lines; assay: Cell viability, first study of 4 pancreatic cancer cell lines, 72 h; type: cell-based
Method: as §1

## HydroxyUreaMethyl Acylfulvene [LP-184]
[1]
  IC50: 0.13 to 0.18 µM
[2]
  tumor volume growth / tumor regression: Complete tumor regression
[3]; FIG. 1 and FIG. 2, 72 hours
  potency in pancreatic cancer cell lines: nanomolar potency
[3]; first study of 4 pancreatic cancer cell lines, treated 72 hours, range across cell lines (FIG. 1), read-out: cytotoxicity in terms of IC50 values
  IC50: 0.11 to 0.31 µM
